In brackets after ≈: the same amount, converted by molar mass. Like-named read-outs stand apart in the source and are kept apart here.
Legend:
xanthine oxidase [1] = molecular target: T1, xanthine oxidase (Homo sapiens, UniProt P47989); settings: cited from earlier work
[2] = molecular target: xanthine oxidase (EC 1.1.3.22) (Homo sapiens, UniProt P47989); assay: biochemical; format: biochemical; settings: for IC50: read-out: IC50 against xanthine oxidase (converted)
Procedure: Xanthine oxidase inhibitory activity of specimens was evaluated by using in vitro spectrophotometric analysis. Both hypoxanthine and xanthine were used as the substrate in the assay, respectively. We added 117 µL of potassium phosphate buffer (50 mM, pH 7.8), 3 µL of specimen solution, and 60 µL of 0.025 unit/mL xanthine oxidase (EC 1.1.3.22) and mixed well in a 96-well microplate, and the mixture was incubated for 10 min at room temperature (25 °C). We added 100 µL of 0.15 mM substrate (hypoxanthine/xanthine) into the well, and the solution was incubated in the dark for 30 min at 37 °C. Then, 20 µL of 1 N HCl was added to stop the reaction. Absorbance at 290 nm of each well was measured using an ELISA (enzyme-linked immunosorbent assay) microplate reader (SPECTROstar Nano, BMG LABTECH, Offenburg, Germany) after incubation. […] All the experiments were performed in triplicate. Inhibition of the xanthine oxidase inhibitory activity was determined by the following formula: Inhibition (%) = [(Acontrol − Acontrol’s blank) − (Asample − Asample’s blank)/(Acontrol − Acontrol’s blank)] × 100. The IC50, half maximal inhibitory concentration, was calculated from the concentration-response curve of the specimen.

xanthine oxidase [3] = molecular target: T1, xanthine oxidase; assay: Enzyme kinetic study (Lineweaver–Burk plot); settings: for Inhibition type on xanthine oxidase: both substrates, hypoxanthine and xanthine
xanthine oxidase [4] = molecular target: T1, xanthine oxidase; settings: cited from earlier work; remark: listed apart in the source
[5] = Hypoxanthine as the substrate, read-out: IC50 xanthine oxidase inhibition (converted)

T1 sequence (P47989 whole entry, species assumed): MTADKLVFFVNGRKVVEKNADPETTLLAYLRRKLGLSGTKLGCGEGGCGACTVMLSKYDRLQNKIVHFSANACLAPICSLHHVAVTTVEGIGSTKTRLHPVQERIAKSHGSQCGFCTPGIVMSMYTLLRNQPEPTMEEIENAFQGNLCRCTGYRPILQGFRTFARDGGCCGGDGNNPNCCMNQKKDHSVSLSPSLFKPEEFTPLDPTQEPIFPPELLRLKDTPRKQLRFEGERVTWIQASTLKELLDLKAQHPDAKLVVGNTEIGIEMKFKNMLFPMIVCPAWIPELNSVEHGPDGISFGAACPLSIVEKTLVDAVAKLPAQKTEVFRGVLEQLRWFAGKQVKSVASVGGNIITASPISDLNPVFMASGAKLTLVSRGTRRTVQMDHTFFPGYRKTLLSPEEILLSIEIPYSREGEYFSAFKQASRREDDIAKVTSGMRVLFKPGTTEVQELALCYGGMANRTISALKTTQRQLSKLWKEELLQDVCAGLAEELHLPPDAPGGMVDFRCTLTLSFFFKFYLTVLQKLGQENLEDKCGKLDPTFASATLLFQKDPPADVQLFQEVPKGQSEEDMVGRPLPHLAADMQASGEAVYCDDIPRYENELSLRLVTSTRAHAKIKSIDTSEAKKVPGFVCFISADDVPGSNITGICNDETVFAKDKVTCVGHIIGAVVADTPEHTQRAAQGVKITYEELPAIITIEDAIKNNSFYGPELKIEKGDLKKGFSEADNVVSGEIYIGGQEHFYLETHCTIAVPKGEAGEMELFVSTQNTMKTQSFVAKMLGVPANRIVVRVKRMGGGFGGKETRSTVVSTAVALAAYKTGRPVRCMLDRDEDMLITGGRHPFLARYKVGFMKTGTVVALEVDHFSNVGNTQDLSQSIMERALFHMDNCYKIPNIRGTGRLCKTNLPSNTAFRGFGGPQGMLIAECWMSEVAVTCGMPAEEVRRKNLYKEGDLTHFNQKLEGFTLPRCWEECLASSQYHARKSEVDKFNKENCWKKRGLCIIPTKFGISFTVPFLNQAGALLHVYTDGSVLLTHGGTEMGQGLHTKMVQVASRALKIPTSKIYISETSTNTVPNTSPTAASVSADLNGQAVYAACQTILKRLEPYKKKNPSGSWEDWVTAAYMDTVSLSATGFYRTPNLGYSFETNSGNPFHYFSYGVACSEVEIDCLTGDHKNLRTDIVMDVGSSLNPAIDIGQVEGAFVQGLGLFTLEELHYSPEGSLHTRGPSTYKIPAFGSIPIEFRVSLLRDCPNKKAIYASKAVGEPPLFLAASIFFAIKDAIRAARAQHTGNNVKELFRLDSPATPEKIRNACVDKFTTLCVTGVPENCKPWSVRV
Chain of xanthine oxidase (EC 1.1.3.22) (P47989 whole entry, species assumed): as above

## O=c1cc(-c2ccc(O)cc2)oc2cc(O)cc(O)c12 [apigenin]
Xanthine oxidase [1]; [5]
  IC50: 130 µM

## O=P(O)(O)O[C@H]1[C@H](OP(=O)(O)O)[C@@H](OP(=O)(O)O)[C@H](OP(=O)(O)O)[C@@H](OP(=O)(O)O)[C@H]1OP(=O)(O)O [phytic acid]
Xanthine oxidase [1]; Xanthine as the substrate, read-out: IC50 (inhibition of the formation of uric acid)
  IC50: ~30000 µM

## C=C(C)[C@H]1CC=C(C)CC1 [Limonene, limonene]
[2]; Hypoxanthine as the substrate
  IC50 against xanthine oxidase: 37.69 ± 2.52 µg/mL (≈ 277 µM)
  IC50: 280 µM
[2]; Xanthine as the substrate
  IC50 against xanthine oxidase: 48.04 ± 0.78 µg/mL (≈ 353 µM)
  IC50: 350 µM
Xanthine oxidase [3]; Hypoxanthine as the substrate
  Inhibition Type: Mixed
Xanthine oxidase [3]; Hypoxanthine substrate, inhibitor 40 μg/mL
  Vmax: 0.00027
Xanthine oxidase [3]; Hypoxanthine substrate, inhibitor 50 μg/mL
  Vmax: 0.00025
Xanthine oxidase [3]; Hypoxanthine substrate, inhibitor 100 μg/mL
  Vmax: 0.00024
Xanthine oxidase [3]; Hypoxanthine substrate, inhibitor 200 μg/mL
  Vmax: 0.00023
Xanthine oxidase [3]; Xanthine as the substrate
  Inhibition Type: Mixed
Xanthine oxidase [3]; Xanthine substrate, inhibitor 40 μg/mL
  Vmax: 0.00029
Xanthine oxidase [3]; Xanthine substrate, inhibitor 50 μg/mL
  Vmax: 0.00026
Xanthine oxidase [3]; Xanthine substrate, inhibitor 100 μg/mL
  Vmax: 0.00022
Xanthine oxidase [3]; Xanthine substrate, inhibitor 200 μg/mL
  Vmax: 0.0002
Xanthine oxidase [3]
  Inhibition type on xanthine oxidase: mixed-type inhibitor

## O=c1c(O)c(-c2ccc(O)c(O)c2)oc2cc(O)cc(O)c12 [quercetin]
Xanthine oxidase [4]
  Inhibition type against xanthine oxidase: mixed type

## Oc1ncnc2[nH]ncc12 [Allopurinol, reference compound]
Xanthine oxidase [4]
  Inhibition type against xanthine oxidase: competitive-type inhibition
Xanthine oxidase [3]; Hypoxanthine as the substrate
  Inhibition Type: Competitive
Xanthine oxidase [3]; Hypoxanthine substrate, inhibitor 0.313 μg/mL
  Vmax: 0.00025
Xanthine oxidase [3]; Hypoxanthine substrate, inhibitor 0.625 μg/mL
  Vmax: 0.00024
Xanthine oxidase [3]; Hypoxanthine substrate, inhibitor 1.250 μg/mL
  Vmax: 0.00024
Xanthine oxidase [3]; Hypoxanthine substrate, inhibitor 2.500 μg/mL
  Vmax: 0.00024
Xanthine oxidase [3]; Xanthine as the substrate
  Inhibition Type: Competitive
Xanthine oxidase [3]; Xanthine substrate, inhibitor 0.313 μg/mL
  Vmax: 0.00026
Xanthine oxidase [3]; Xanthine substrate, inhibitor 0.625 μg/mL
  Vmax: 0.00026
Xanthine oxidase [3]; Xanthine substrate, inhibitor 1.250 μg/mL
  Vmax: 0.00025
Xanthine oxidase [3]; Xanthine substrate, inhibitor 2.500 μg/mL
  Vmax: 0.00026
Xanthine oxidase [3]
  Inhibition type on xanthine oxidase: competitive

## C[C@@H]1O[C@@H](OC[C@H]2O[C@@H](Oc3c(-c4ccc(O)c(O)c4)oc4cc(O)cc(O)c4c3=O)[C@H](O)[C@@H](O)[C@@H]2O)[C@H](O)[C@H](O)[C@H]1O [rutin]
Xanthine oxidase [1]; [5]
  IC50: 99.9 µM

## COC(=O)c1cc(C(=O)O)c[nH]1 [2-metyl ester-1H-pyrrole-4-carboxilyc acid]
Xanthine oxidase [1]; Xanthine as the substrate
  IC50 xanthine oxidase inhibition: 48.86 µg/mL (≈ 289 µM)

## CC1=CCC2C(C1)C2(C)C (stereo not shown) [3-Carene, 3-carene]
[2]; Hypoxanthine as the substrate
  IC50: 810 µM
[2]; Xanthine as the substrate
  activity against xanthine oxidase (in words): did not display activity

— article PMC9609098, “Xanthine Oxidase Inhibitory Activity and Chemical Composition of Pistacia chinensis Leaf Essential Oil” (Pharmaceutics, 2022)
